From patent US9125913B2, “Bcl-2-selective apoptosis-inducing agents for the treatment of cancer and immune diseases” (AbbVie Inc., priority 2008, dated 2015)

test system: GST-Bcl-2; assay: TR-FRET binding assay, Bcl-2; details: TR-FRET Ki values
How it was run: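 Ki values come from Wang's competitive-binding equation applied to TR-FRET signal (excitation 340/35 nm; emission 520/525 nm F-Bak peptide, 495/510 nm Tb antibody). Protein, probe and antibody incubated with compound 3 h at room temperature; dilution series began at 50 μM as 2× stock in 10% DMSO.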

Structure (SMILES) | Binding selectivity ratio (Bcl-XL Ki/Bcl-2 Ki)
CC1(C)CCC(CN2CCN(c3ccc(C(=O)NS(=O)(=O)c4ccc(NCC5(N)CCOCC5)c([N+](=O)[O-])c4)c(Oc4cccc5[nH]ccc45)c3)CC2)=C(c2ccc(Cl)cc2)C1 [Example 176, N-[(4-{[(4-aminotetrahydro-2H-pyran-4-yl)methyl]amino}-3-nitrophenyl)sulfonyl]-4-(4-{[2-(4-chlorophenyl)-4,4-dimethylcyclohex-1-en-1-yl]methyl}piperazin-1-yl)-2-(1H-indol-4-yloxy)benzamide] | 177.8
CC1(C)CCC(CN2CCN(c3ccc(C(=O)NS(=O)(=O)c4cnc(OCC5CCOC5)c(Cl)c4)c(Oc4cccc5[nH]ncc45)c3)CC2)=C(c2ccc(Cl)cc2)C1 (stereo not drawn) [EXAMPLE 420, 4-(4-{[2-(4-chlorophenyl)-4,4-dimethylcyclohex-1-en-1-yl]methyl}piperazin-1-yl)-N-{[5-chloro-6-(tetrahydrofuran-3-ylmethoxy)pyridin-3-yl]sulfonyl}-2-(1H-indazol-4-yloxy)benzamide] | 1153
CC(c1ccccc1-c1ccc(Cl)cc1)N1CCN(c2ccc(C(=O)NS(=O)(=O)c3ccc(NC4CCN(C)CC4)c([N+](=O)[O-])c3)c(Oc3cccc4[nH]ccc34)c2)CC1 (stereo not drawn) [EXAMPLE 206, 4-{4-[1-(4′-chloro-1,1′-biphenyl-2-yl)ethyl]piperazin-1-yl}-2-(1H-indol-4-yloxy)-N-({4-[(1-methylpiperidin-4-yl)amino]-3-nitrophenyl}sulfonyl)benzamide] | >7916.4
CN1CCC(Nc2ccc(S(=O)(=O)NC(=O)c3ccc(N4CCN(CC5=C(c6ccc(Cl)cc6)CC(C)(C)CC5)C(CO)C4)cc3Oc3ccc4[nH]ccc4c3)cc2[N+](=O)[O-])CC1 (stereo not drawn) [EXAMPLE 218, 4-[4-{[2-(4-chlorophenyl)-4,4-dimethylcyclohex-1-en-1-yl]methyl}-3-(hydroxymethyl)piperazin-1-yl]-2-(1H-indol-5-yloxy)-N-({4-[(1-methylpiperidin-4-yl)amino]-3-nitrophenyl}sulfonyl)benzamide] | 738.2
CC1(C)CCC(CN2CCN(c3ccc(C(=O)NS(=O)(=O)c4ccc(NCC5CN(CC(F)F)CCO5)c([N+](=O)[O-])c4)c(Oc4cccc5[nH]cnc45)c3)CC2)=C(c2ccc(Cl)cc2)C1 (stereo not drawn) [EXAMPLE 415, 2-(1H-benzimidazol-4-yloxy)-4-(4-{[2-(4-chlorophenyl)-4,4-dimethylcyclohex-1-en-1-yl]methyl}piperazin-1-yl)-N-{[4-({[4-(2,2-difluoroethyl)morpholin-2-yl]methyl}amino)-3-nitrophenyl]sulfonyl}benzamide] | 17326.89211
CC1(C)CCC(CN2CCN(c3ccc(C(=O)NS(=O)(=O)c4ccc(N[C@H]5CC[C@H](N6CCOCC6)CC5)c([N+](=O)[O-])c4)c(Oc4cccc5[nH]ncc45)c3)CC2)=C(c2ccc(Cl)cc2)C1 [EXAMPLE 402, Trans-4-(4-{[2-(4-chlorophenyl)-4,4-dimethylcyclohex-1-en-1-yl]methyl}piperazin-1-yl)-2-(1H-indazol-4-yloxy)-N-({4-[(4-morpholin-4-ylcyclohexyl)amino]-3-nitrophenyl}sulfonyl)benzamide] | 137.4
CC1(C)CCC(CN2CCN(c3ccc(C(=O)NS(=O)(=O)c4ccc(NCC5CCOCC5)c([N+](=O)[O-])c4)c(Oc4ccc5[nH]ccc5c4)c3)CC2)=C(c2ccc(Cl)cc2)C1 [Example 177, 4-(4-{[2-(4-chlorophenyl)-4,4-dimethylcyclohex-1-en-1-yl]methyl}piperazin-1-yl)-2-(1H-indol-5-yloxy)-N-({3-nitro-4-[(tetrahydro-2H-pyran-4-ylmethyl)amino]phenyl}sulfonyl)benzamide] | 799.7
CC1(C)CC(c2ccc(Cl)cc2)=C(CN2CCN(c3ccc(C(=O)NS(=O)(=O)c4ccc(NCC5CCOCC5)c([N+](=O)[O-])c4)c(Oc4ccc5[nH]ccc5c4)c3)CC2)CO1 [EXAMPLE 182, 4-(4-{[4-(4-chlorophenyl)-6,6-dimethyl-5,6-dihydro-2H-pyran-3-yl]methyl}piperazin-1-yl)-2-(1H-indol-5-yloxy)-N-({3-nitro-4-[(tetrahydro-2H-pyran-4-ylmethyl)amino]phenyl}sulfonyl)benzamide] | >7595.8
CO[C@H]1CC[C@H](CNc2ccc(S(=O)(=O)NC(=O)c3ccc(N4CCN(CC5=C(c6ccc(Cl)cc6)CC(C)(C)CC5)CC4)cc3Oc3cccc4[nH]cnc34)cc2[N+](=O)[O-])CC1 [EXAMPLE 440, Trans-2-(1H-benzimidazol-4-yloxy)-4-(4-{[2-(4-chlorophenyl)-4,4-dimethylcyclohex-1-en-1-yl]methyl}piperazin-1-yl)-N-[(4-{[(4-methoxycyclohexyl)methyl]amino}-3-nitrophenyl)sulfonyl]benzamide] | 4549.1
CC1(C)CCC(CN2CCN(c3ccc(C(=O)NS(=O)(=O)c4ccc(N[C@@H]5CCN(CC#N)C5)c([N+](=O)[O-])c4)c(Oc4cccc5[nH]cnc45)c3)CC2)=C(c2ccc(Cl)cc2)C1 [EXAMPLE 428, 2-(1H-benzimidazol-4-yloxy)-4-(4-{[2-(4-chlorophenyl)-4,4-dimethylcyclohex-1-en-1-yl]methyl}piperazin-1-yl)-N-[(4-{[(3R)-1-(cyanomethyl)pyrrolidin-3-yl]amino}-3-nitrophenyl)sulfonyl]benzamide] | 5832
CN1CC(Nc2ccc(S(=O)(=O)NC(=O)c3ccc(N4CCN(CC5=C(c6ccc(Cl)cc6)CC(C)(C)CC5)CC4)cc3Oc3ccc4[nH]ccc4c3)cc2[N+](=O)[O-])CCC1=O (stereo not drawn) [EXAMPLE 282, 4-(4-{[2-(4-chlorophenyl)-4,4-dimethylcyclohex-1-en-1-yl]methyl}piperazin-1-yl)-2-(1H-indol-5-yloxy)-N-({4-[(1-methyl-6-oxopiperidin-3-yl)amino]-3-nitrophenyl}sulfonyl)benzamide] | 3434.4
CC1(C)CCC(CN2CCN(c3ccc(C(=O)NS(=O)(=O)c4ccc(NCCCN5CCOCC5)c(S(=O)(=O)C(F)(F)F)c4)c(Oc4cccc5[nH]ccc45)c3)CC2)=C(c2ccc(Cl)cc2)C1 [EXAMPLE 349, 4-(4-{[2-(4-chlorophenyl)-4,4-dimethylcyclohex-1-en-1-yl]methyl}piperazin-1-yl)-2-(1H-indol-4-yloxy)-N-({4-[(3-morpholin-4-ylpropyl)amino]-3-[(trifluoromethyl)sulfonyl]phenyl}sulfonyl)benzamide] | 51.9
CN(C)CC(=O)N1CCO[C@@H](CNc2ccc(S(=O)(=O)NC(=O)c3ccc(N4CCN(CC5=C(c6ccc(Cl)cc6)CC(C)(C)CC5)CC4)cc3Oc3cccc4[nH]cnc34)cc2[N+](=O)[O-])C1 [EXAMPLE 438, 2-(1H-benzimidazol-4-yloxy)-4-(4-{[2-(4-chlorophenyl)-4,4-dimethylcyclohex-1-en-1-yl]methyl}piperazin-1-yl)-N-{[4-({[(2S)-4-(N,N-dimethylglycyl)morpholin-2-yl]methyl}amino)-3-nitrophenyl]sulfonyl}benzamide] | 34.5
CC1(C)CCC(c2ccc(Cl)cc2)=C(CN2CCN(c3ccc(C(=O)NS(=O)(=O)c4ccc(NCC5CCOCC5)c([N+](=O)[O-])c4)c(Oc4ccc5[nH]ccc5c4)c3)CC2)C1 [EXAMPLE 290, 4-(4-{[2-(4-chlorophenyl)-5,5-dimethylcyclohex-1-en-1-yl]methyl}piperazin-1-yl)-2-(1H-indol-5-yloxy)-N-({3-nitro-4-[(tetrahydro-2H-pyran-4-ylmethyl)amino]phenyl}sulfonyl)benzamide] | >1808.5
CC1(C)CCC(CN2CCN(c3ccc(C(=O)NS(=O)(=O)c4ccc(NC5CCOCC5)c([N+](=O)[O-])c4)c(Oc4ccc5[nH]ccc5c4)c3)CC2)=C(c2ccc(Cl)cc2)C1 [EXAMPLE 263, 4-(4-{[2-(4-chlorophenyl)-4,4-dimethylcyclohex-1-en-1-yl]methyl}piperazin-1-yl)-2-(1H-indol-5-yloxy)-N-{[3-nitro-4-(tetrahydro-2H-pyran-4-ylamino)phenyl]sulfonyl}benzamide] | >2090.0
CC1(C)CCC(CN2CCN(c3ccc(C(=O)NS(=O)(=O)c4ccc(NCC5(N)CCOCC5)c([N+](=O)[O-])c4)c(Oc4ccc5[nH]ccc5c4)c3)CC2)=C(c2ccc(Cl)cc2)C1 [EXAMPLE 188, N-[(4-{[(4-aminotetrahydro-2H-pyran-4-yl)methyl]amino}-3-nitrophenyl)sulfonyl]-4-(4-{[2-(4-chlorophenyl)-4,4-dimethylcyclohex-1-en-1-yl]methyl}piperazin-1-yl)-2-(1H-indol-5-yloxy)benzamide] | 1135.4
CC1(C)CCC(CN2CCN(c3ccc(C(=O)NS(=O)(=O)c4cnc(OCC5CCOCC5)c(C#N)c4)c(Oc4cccc5[nH]ccc45)c3)CC2)=C(c2ccc(Cl)cc2)C1 [EXAMPLE 386, 4-(4-{[2-(4-chlorophenyl)-4,4-dimethylcyclohex-1-en-1-yl]methyl}piperazin-1-yl)-N-{[5-cyano-6-(tetrahydro-2H-pyran-4-ylmethoxy)pyridin-3-yl]sulfonyl}-2-(1H-indol-4-yloxy)benzamide] | 494.5
O=C(NS(=O)(=O)c1ccc(NC2CCN(C3CCOCC3)CC2)c([N+](=O)[O-])c1)c1ccc(N2CCN(Cc3ccc(C(F)(F)F)cc3-c3ccc(Cl)cc3)CC2)cc1Oc1ccc2[nH]ccc2c1 [EXAMPLE 358, 4-(4-{[4′-chloro-5-(trifluoromethyl)-1,1′-biphenyl-2-yl]methyl}piperazin-1-yl)-2-(1H-indol-5-yloxy)-N-({3-nitro-4-[(1-tetrahydro-2H-pyran-4-ylpiperidin-4-yl)amino]phenyl}sulfonyl)benzamide] | >121.8
